Measurements from patent EP3221371B1, “MONOLITHS” (Monolythix, Inc., priority 2014, dated 2016).

Tested on: fluorescently-labeled cell wall material
Assay: EnzChek Lysozyme Assay of covalently grafted lysozyme
Format: biochemical
Details: one hour at 37 °C, compared with lysozyme standard dilution series (Figure 5)
Method: After covalently grafting lysozyme to a small block of carboxy monolith polymeric matrix, the sample was placed into a solution of fluorescently-labeled cell wall material (EnzChek® Lysozyme Assay Kit) and incubated for one hour at 37 °C in a plate reader, along with a lysozyme standard dilution series.
A fresh solution of 160 mg/mL EDAC stock in dry DMSO was prepared. A lysozyme mix was prepared from 20 µL of a 10 mg/mL solution of lysozyme in 1x PBS, 28 µL of a 200 mM MES solution at pH 7.0, and 15 µL water.
7 µL 160 mg/mL EDAC was spotted onto a single 20 mg disc formed from monolith material, (1:2:1 TEGDMA:EGDMA:HEMA plus 2.0% MAA). The prepared lysozyme mix (63 µL) was then added and the sample incubated at room temperature for 1 h. A glycine solution (10 µl; 30 mg/mL solution in 100 mM MES solution at pH 7.0) was then added and the sample incubated for 15 min at room temperature. The disc was then rinsed in water and stored at 4 °C until use.
To test the activity of the immobilized enzyme, a lysozyme-coupled disc and an untreated control disc were each cut into equal 1/8 size pie-shaped segments. Two pieces of each were then added to two wells of a microwell plate and lysozyme substrate was added. […] Fluorescence was read at regular intervals to determine the extent of carbohydrate breakdown and consequent lysozyme activity.

lysozyme chip: Lysozyme covalently grafted with EDAC to carboxy monolith disc (1:2:1 TEGDMA:EGDMA:HEMA plus 2.0% MAA)
final fluorescence signal intensity: greater than the highest standard
